Tests used:
[1] = test system: Human immunodeficiency virus 1; assay: Antiviral activity against HIV1 harboring L100I mutant infected in human MT4 cells assessed as protection against virus-induced cytopathicity; type: functional, organism-based; conditions: Human immunodeficiency virus 1, MT4
[2] = test system: Human immunodeficiency virus 1; assay: Antiviral activity against wild type HIV1 IIIB infected in human MT4 cells assessed as protection against virus-induced cytopathicity; type: functional, organism-based; conditions: Human immunodeficiency virus 1, IIIB
[3] = Cytotoxicity against human MT4 cells assessed as reduction in cell viability; type: toxicity, cell-based
[4] = Selectivity index, ratio of CC50 for cytotoxicity against human MT4 cells to EC50 for antiviral activity against wild type HIV1 IIIB infected in human MT4 cells; type: toxicity, cell-based; conditions: read-out: Ratio CC50/EC50
[5] = test system: Human immunodeficiency virus 1; assay: Antiviral activity against HIV1 harboring K103 N mutant infected in human MT4 cells assessed as protection against virus-induced cytopathicity; type: functional, organism-based; conditions: Human immunodeficiency virus 1, MT4
[6] = test system: Human immunodeficiency virus 1; assay: Antiviral activity against HIV1 harboring Y181C mutant infected in human MT4 cells assessed as protection against virus-induced cytopathicity; type: functional, organism-based; conditions: Human immunodeficiency virus 1, MT4
[7] = test system: Human immunodeficiency virus 1; assay: Antiviral activity against HIV1 harboring Y188L mutant infected in human MT4 cells assessed as protection against virus-induced cytopathicity; type: functional, organism-based; conditions: Human immunodeficiency virus 1, MT4
[8] = test system: Human immunodeficiency virus 1; assay: Antiviral activity against HIV1 harboring E138K mutant infected in human MT4 cells assessed as protection against virus-induced cytopathicity; type: functional, organism-based; conditions: Human immunodeficiency virus 1, MT4
[9] = molecular target: Human immunodeficiency virus type 1 reverse transcriptase (Human immunodeficiency virus 1, UniProt Q72547); assay: Inhibition of wild type HIV-1 reverse transcriptase assessed as inhibition of biotin deoxyuridine triphosphate incorporation into […]
Cytochrome P450 2D6 = Cytochrome P450 2D6 (Homo sapiens, UniProt P10635); assay: Inhibition of CYP2D6 (unknown origin); type: ADME
Sequence of Cytochrome P450 2D6 (P10635 whole entry): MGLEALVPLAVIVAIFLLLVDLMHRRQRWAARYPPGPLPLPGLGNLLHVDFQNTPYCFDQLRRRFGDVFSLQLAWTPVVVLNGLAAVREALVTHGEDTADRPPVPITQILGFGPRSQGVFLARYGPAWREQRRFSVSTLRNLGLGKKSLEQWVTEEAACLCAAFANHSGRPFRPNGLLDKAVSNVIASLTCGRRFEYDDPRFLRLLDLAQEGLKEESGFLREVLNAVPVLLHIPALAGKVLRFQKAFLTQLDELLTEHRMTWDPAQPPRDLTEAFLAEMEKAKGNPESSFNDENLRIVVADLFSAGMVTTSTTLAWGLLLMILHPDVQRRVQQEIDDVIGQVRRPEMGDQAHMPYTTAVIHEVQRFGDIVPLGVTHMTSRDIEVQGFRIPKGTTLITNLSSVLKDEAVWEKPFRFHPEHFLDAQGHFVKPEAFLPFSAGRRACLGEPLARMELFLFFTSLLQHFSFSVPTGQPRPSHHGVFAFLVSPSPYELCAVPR

Row | Structure (SMILES) | EC50 [1] | EC50 [2] | CC50 [3] | selectivity ratio [4] | EC50 [5] | EC50 [6] | EC50 [7] | EC50 [8] | IC50 [9] | IC50 (Cytochrome P450 2D6)
1 | Cc1cc(C)cc(Sc2c(C3CC3)c(=O)[nH]c(=O)n2COCc2ccccc2)c1 | 130 nM | 23 nM | 34000 nM | 1480 | 1050 nM | 1030 nM | 3750 nM | 140 nM | 80 nM | 
2 | O=c1[nH]c(=O)n(COCc2ccccc2)c(Sc2cccc(Cl)c2)c1C1CC1 | 360 nM | 48 nM | 29700 nM | 613 | 3740 nM | 3280 nM | > 29700 nM | 190 nM | 60 nM | 
3 | O=c1[nH]c(=O)n(COCc2ccccc2)c(Sc2ccccc2Cl)c1C1CC1 | 630 nM | 53 nM | 27300 nM | 515 | 9140 nM | 2940 nM | > 27300 nM | 430 nM | 90 nM | 
4 | O=c1[nH]c(=O)n(COCc2ccccc2)c(Sc2c(F)cccc2F)c1C1CC1 | 2010 nM | 340 nM | 29000 nM | 89 | > 29000 nM | > 29000 nM | > 29000 nM | 1510 nM | 720 nM | 
5 | Cc1cccc(C)c1Sc1c(C2CC2)c(=O)[nH]c(=O)n1COCc1ccccc1 | > 7420 nM | 4360 nM | 30300 nM | 7 | > 30300 nM | > 30300 nM | > 30300 nM | > 30300 nM | 6120 nM | 
6 | O=c1[nH]c(=O)n(COCc2ccccc2)c(Sc2ccncc2)c1C1CC1 | 1440 nM | 22200 nM | 177000 nM | 8 | 24000 nM | 17800 nM | > 167000 nM | 760 nM | 630 nM | 
7 | O=c1[nH]c(=O)n(COCc2ccccc2)c(Sc2cccc(Br)c2)c1C1CC1 | 370 nM | 110 nM | 26500 nM | 239 | 3640 nM | 3090 nM | > 26500 nM | 240 nM | 70 nM | 
8 | O=c1[nH]c(=O)n(COCc2ccccc2)c(Sc2cc(Cl)ccc2Cl)c1C1CC1 | 120 nM | 29 nM | 33900 nM | 1140 | 1510 nM | 510 nM | 7920 nM | 70 nM | 30 nM | 
9 | O=c1[nH]c(=O)n(COCc2ccccc2)c(Sc2cccc(Cl)c2Cl)c1C1CC1 | 2340 nM | 800 nM | 27400 nM | 34 | > 27400 nM | > 27400 nM | > 27400 nM | 670 nM | 1220 nM | 
10 | Cc1ccc(C)c(Sc2c(C3CC3)c(=O)[nH]c(=O)n2COCc2ccccc2)c1 | 190 nM | 71 nM | 74800 nM | 1050 | 4160 nM | 2010 nM | 19100 nM | 230 nM | 80 nM | 
11 | O=c1[nH]c(=O)n(COCc2ccccc2)c(Sc2ccccn2)c1C1CC1 | 390 nM | 170 nM | 167000 nM | 1000 | 6120 nM | 3990 nM | > 49900 nM | 250 nM | 110 nM | 
12 | Cc1ccc(Sc2c(C3CC3)c(=O)[nH]c(=O)n2COCc2ccccc2)cc1 | 2050 nM | 2590 nM | 31800 nM | 12 | > 31800 nM | 5220 nM | > 31800 nM | 10200 nM | 3800 nM | 
13 | COc1ccc2c(c1)[C@]13CCCC[C@@H]1[C@H](C2)N(C)CC3 [DEXTROMETHORPHAN] |  |  |  |  |  |  |  |  |  | 52 nM

Source: ChEMBL document CHEMBL5331066, “Structure-guided design of novel HEPT analogs with enhanced potency and safety: From Isopropyl-HEPTs to Cyclopropyl-HEPTs” (Eur J Med Chem, 2023)
